The results in this text go back to PubChem BioAssay (NCI).

Where “and” joins values, the source holds several entries; their conditions need not be identical. Equal entries are not always repeated.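 Interpolation was linear, between the two tested concentrations surrounding the appropriate level; five concentrations were tested over 48 hours in 96-well plates. Here, GI50 denotes the concentration required for 50% inhibition of growth. The concentration for full growth arrest is given as TGI.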 Where a SMILES comes first, the peptide text is derived from it. [ ]: non-standard residue; d: D form. pGlu = O=C1CC[CH](C(=O)O)N1

Experiment in all cases: NCI anticancer screen, dose series, 48 h
Assay [1] has as its system OVCAR-8 ovarian.
For assay [2], the system named is IGROV1 ovarian.
Assay [3] relates to K-562 leukemia.
For assay [4], the system named is CAKI-1 renal.
Assay [5] deals with SF-539 CNS.
Assay [6] has as its system UACC-257 melanoma.
In assay [7] the test system is PC-3 prostate.
Assay [8] relates to BT-549 breast.
The test system of assay [9] is NCI/ADR-RES ovarian.
Assay [10] deals with SR leukemia.

`COc1nc2ccc(CNc3ccc(C(=O)O)cc3)cc2nc1OC`: the TGI in assay [1], in assay [2], in assay [3], in assay [4], in assay [5] and in [6] was above 10 µM in each case. Further, the TGI in assay [7], in [8] and in [9] was above 10 µM throughout.

In the case of `CC(NC(=O)C(Cc1cnc[nH]1)NC(=O)C1CCC(=O)N1)C(N)=O` (stereo not drawn) ([pGlu]-His-Ala-NH2; configuration not given here), the TGI in assay [1], in assay [2], in assay [3], in assay [10], in assay [7] and in assay [8] was above 100 µM throughout.

On to `CCCCCCCC(=O)OCC(C[As](=O)(O)O)OC(=O)CCCCCCC` (configuration not stated), for which the TGI in [1] was 30.3 µM; in assay [2], 26.9 µM; in [3], 81.9 µM; in assay [5] it was 27.1 µM; in [6] it was 28.1 µM; in assay [10], 60.8 µM.

As for `CC(C)(C)OC(=O)N1Cc2cc(O)ccc2C[C@H]1C(=O)O`, the TGI in [1], in assay [2], in assay [3], in assay [4], in assay [5] and in assay [6] was above 100 µM in each case. For the same compound, the TGI in assay [10], in assay [7] and in [9] was above 100 µM in each case.

As to `COc1cc([C@@H]2c3cc4c(cc3[C@@H](N=Cc3ccc(C(=O)O[C@@H](C(=O)O[C@H]5C[C@@]6(O)[C@@H](OC(=O)c7ccccc7)[C@@H]7[C@]8(OC(C)=O)CO[C@@H]8C[C@H](O)[C@@]7(C)C(=O)[C@H](OC(C)=O)C(=C5C)C6(C)C)[C@@H](NC(=O)c5ccccc5)c5ccccc5)cc3)[C@H]3COC(=O)[C@H]23)OCO4)cc(OC)c1O`, the TGI was above 50 µM in assay [1]; above 50 µM in [2]; above 50 µM in [3]; above 50 µM in assay [4]; 1.47 µM in [5]; above 50 µM in assay [6]. The TGI in [8] is above 11.7 µM; in assay [9] it was above 50 µM.

As to `N#Cc1ccc(Nc2cnc3ccc(N)cc3n2)cc1`, the TGI in assay [1], in assay [3], in [4], in assay [5], in assay [6] and in assay [10] was above 100 µM throughout.

Regarding `C=C1C(=O)O[C@@H]2OC3(C)CCC4C(C)CCC1C42OO3` (some centres not stated), the GI50 in assay [1] was 3.47 µM; in [2], 4.71 µM; in [3], 2.32 µM; in [5] it was 3.07 µM; in [9] it was 4.17 µM. Further, the TGI is 16.2 µM and 11.7 µM in [1]; 16.7 µM and 12.7 µM in assay [2]; 6.76 µM and 18.1 µM in assay [3]; 5.95 µM in assay [4]; 11.7 µM and 6.62 µM in assay [5]; 14.1 µM and 12 µM in assay [6]. The TGI in assay [9] was 18.6 µM and 6.51 µM.

Regarding `O=C1C2=C(CCCCC2)C2CCCCC12O` (configuration not stated), the TGI in assay [1], in assay [2], in assay [3], in assay [5], in [6] and in assay [10] was above 100 µM throughout.

In the case of `COc1cc(/C=c2/c3ccccc3n3c2cc(-c2ccccc2)[n+]3C)cc(OC)c1OC`, the TGI was 12.9 µM in [1]; 23 µM in assay [2]; 15.4 µM in [3]; 11.8 µM in [4]; 8.64 µM in [5]; 7.68 µM in assay [6]. Further, the TGI in assay [7] is 14.6 µM; in assay [8], 11.8 µM; in assay [9], above 100 µM.

In the case of `Cc1cc(C)c2c(=N)c3ccccc3n(CCCCCCn3c4ccccc4c(=N)c4c(C)cc(C)nc43)c2n1`, the TGI in assay [1] is 3.14 µM; in assay [2], 2.64 µM; in assay [3], above 100 µM; in assay [4], 2.52 µM; in [5], 3.01 µM; in [6] it was 3.06 µM. Moreover, the TGI in assay [7] stood at 2.81 µM; in assay [8] it was 2.91 µM.

In the case of `C/C(=N\NC(=O)c1cccnc1)c1cccc(/C(C)=N/NC(=O)c2cccnc2)n1.CC(=O)[O-].CC(=O)[O-].[Zn+2]`, the TGI was above 39.4 µM in assay [1]; above 43.4 µM in [2]; 31.4 µM in assay [4]; 6.55 µM in assay [5]; 99.7 µM in assay [6]; 10.8 µM in assay [10]. In addition, the GI50 was 10.1 µM in assay [2] and 0.793 µM in [10].

Take `C=CCCC(On1c(-c2ccc(Cl)cc2)csc1=S)c1ccccc1` (configuration not stated): the TGI in assay [1], in assay [2], in [3], in assay [4], in assay [5] and in [6] was above 100 µM throughout. Also, the TGI in assay [7], in assay [8] and in assay [9] was above 100 µM each time.

In the case of `Clc1ccc2nc(CC3CCCC3)[nH]c2c1`, the TGI was above 100 µM in assay [1]; 19 µM in assay [2]; 22.1 µM in assay [3]; 27.6 µM in [4]; 51.7 µM in [5]; above 100 µM in [6]. Also, the results for the TGI in assay [10], in [7] and in assay [9] were 26.5 µM, 71 µM and 35.6 µM, respectively.

Turning to `CC(C)=CCCC1(Sc2ccccc2)C(=O)OCC1C=C(C)C` (configuration not stated), the TGI is above 100 µM in assay [1]; 60.4 µM in assay [2]; above 100 µM in assay [4]; 47.9 µM in [5]; 83 µM in [6]; above 100 µM in [7]. Further, the TGI in assay [8] and in assay [9] was above 100 µM in each case.

Take `CC(=O)NC(C)c1ccc(N=NN2CCCC2)cc1` (configuration not stated): the TGI in assay [1], in assay [2], in [4], in assay [5], in [6] and in assay [7] was above 100 µM in each case. In [9], the TGI was above 100 µM.

Consider `O=C(NN1C(=O)CSC1c1ccco1)c1ccncc1` (configuration not stated), for which the TGI in assay [1], in assay [2], in assay [3], in assay [4], in assay [5] and in [6] was above 100 µM in each case. Moreover, the TGI in [7], in assay [8] and in assay [9] was above 100 µM each time.

Regarding `CC1CC(=O)Nc2ccc(N=NN(C)C)cc2N1C=O` (configuration not stated), the TGI in assay [1], in assay [2], in assay [3], in [4], in assay [6] and in [7] was above 100 µM throughout. For the same compound, the TGI in assay [8] and in [9] was above 100 µM each time.

Turning to `CCC/C(Cl)=N\OC(=O)Nc1ccc(F)c([N+](=O)[O-])c1`, the TGI is 31.3 µM in assay [1]; 28.7 µM in assay [2]; above 100 µM in assay [3]; 15.5 µM in [4]; 42.9 µM in [5]; 34.2 µM in assay [6]. Also, the figures for the TGI in assay [7], in assay [8] and in [9] were 28.5 µM, 22.4 µM and 36.6 µM, respectively.

Turning to `CC(C)(C)c1cc(/C=C/C(=O)CC(=O)/C=C/c2cc(C(C)(C)C)c(O)c(C(C)(C)C)c2)cc(C(C)(C)C)c1O`, the TGI in assay [1], in assay [2], in assay [5], in [6], in assay [7] and in [8] was above 50 µM throughout. Moreover, the TGI in assay [9] was above 50 µM.

Take `C=CC[C@@H]1C=C[C@@H](C(=O)OC)n2c(=O)n(-c3ccccc3)c(=O)n21`: the TGI in assay [1], in assay [2], in assay [3], in assay [4], in [5] and in [6] was above 100 µM each time. In addition, the TGI in [10], in assay [8] and in [9] was above 100 µM throughout.

As to `COc1c(-c2cccs2)oc2c(CC(=O)O)cccc2c1=O`, the TGI in assay [2], in assay [3], in assay [4], in [5], in [6] and in assay [10] was above 100 µM throughout. Besides, the TGI in [7] and in [8] was above 100 µM each time.

For `c1ccc(CCN2CCN=C2Cc2ccccc2)cc1`, the TGI in [1], in assay [2], in assay [3], in [6], in [10] and in assay [8] was above 100 µM each time. The same compound displayed a TGI in assay [9] above 100 µM.

In the case of `COc1ccc(/C=N\NC(=O)Nc2cccc3ccccc23)cc1`, the TGI in assay [2] was above 100 µM; in assay [4] it was 35.3 µM; in assay [5], 33.3 µM; in [6] it was above 100 µM; in assay [7], above 100 µM; in assay [8], above 100 µM. Besides, in [9], the TGI was above 100 µM.

Turning to `Cn1cc(-c2nc(-c3c[nH]c4ccncc34)cs2)c2cc(F)ccc21`, the GI50 is 2.11 µM in assay [1]; 1.86 µM in assay [2]; 1.65 µM in [4]; 1.68 µM in assay [5]; 1.97 µM in assay [6]; 1.63 µM in assay [7]. For the same compound, the GI50 in assay [8] was 1.8 µM; in assay [9] it was 1.93 µM. Also, the TGI in [1] was 4.79 µM; in assay [2], 3.41 µM; in [4], 3.04 µM; in [5], 3.1 µM; in assay [6], 3.56 µM; in assay [7], 3.17 µM. The TGI was found to be 3.4 µM in [8] and 4.19 µM in [9].

Take `CC1(C)O[C@H]2OC(CO)C(OS(C)(=O)=O)[C@H]2O1` (some centres not stated): the TGI in assay [1], in assay [2], in assay [4], in [5], in assay [6] and in [7] was above 100 µM in each case. The compound also gave a TGI in assay [9] above 100 µM.

For the compound `CN(C)CCCNc1cnc2cc3ccccc3cc2n1`, the TGI in assay [1] was 59.4 µM; in assay [2] it was 31.8 µM; in [3], 70.2 µM; in assay [4], 74.4 µM; in [5] it was 68.8 µM; in assay [6], 42.5 µM. The TGI in [10] was above 100 µM; in assay [7], 45.6 µM; in assay [8], 58.9 µM.

As to `CC(=O)Nc1ccc(-c2nnc(SCC(=O)Nc3cccc([N+](=O)[O-])c3)o2)cc1`, the TGI was found to be 33.4 µM in assay [1]; 31.4 µM in [2]; 57.5 µM in assay [3]; 55.8 µM in assay [4]; 31.4 µM in assay [5]; 51.4 µM in assay [6]. For the same compound, the TGI in [10] turned out to be 89.2 µM.

In the case of `COc1cc(/C=C2\N=C(C)N(n3c(-c4ccccc4)nc4ccccc4c3=O)C2=O)cc(OC)c1OC`, the TGI in assay [1], in assay [2], in assay [3], in assay [4], in assay [5] and in [6] was above 100 µM throughout. For the same compound, the TGI in assay [10], in assay [7] and in assay [8] was above 100 µM throughout.

For the compound `CNc1ncnc2c1nnn2C`, the TGI in [1], in assay [2], in assay [3], in assay [4], in [5] and in [6] was above 100 µM each time. The TGI in assay [7] and in assay [9] was above 100 µM throughout.

As to `COc1cc2cc3c4c(cc(OC)c(OC)c4c2cc1OC)CCN3C(=O)N(C)C`, the TGI in assay [1], in assay [2], in assay [3], in [4], in assay [5] and in assay [6] was above 100 µM throughout. This compound also gave a TGI in [10] above 100 µM.
